# System: PIP3 and PI(3,4)P2
# Test: FRET emission ratio imaging of InPAkt reporters in NIH3T3 cells upon growth factor stimulation
# Format: cell-based
# Conditions: for t1/2 of InPAkt response produced by the growth factor / time to reach plateau of InPAkt response produced by the growth factor / InPAkt emission ratio increase produced by the growth factor: NIH3T3 cells expressing InPAkt; for t1/2 of InPAkt response produced by the growth factor / time to reach plateau of InPAkt response produced by the growth factor: single ligand; for InPAkt emission ratio increase produced by the growth factor: single ligand: 50 ng/ml PDGF, 50 nM IGF-1 or 100 ng/ml insulin; for InPAkt emission ratio increase, sequential stimulation: agonists applied sequentially: insulin; for InPAkt emission ratio increase, sequential stimulation / t1/2 of InPAkt response, sequential stimulation / time of InPAkt emission ratio increase, sequential stimulation: then IGF-1, then PDGF; for t1/2 of InPAkt response, sequential stimulation / time of InPAkt emission ratio increase, sequential stimulation: insulin
# Procedure: Cell Culture. HEK293 and NIH3T3 cells were plated onto sterilized glass coverslips in 35-mm dishes and grown to 50-90% confluency in DMEM (10% FBS) at 37° C. with 5% CO2. Cells were transfected with FUGENE®-6 (Roche), then serum starved for 24-36 h before imaging. Colocalization studies were performed by incubating transfected cells with Hoechst 33342 cell-permeable dyes (Molecular Probes) for staining nucleic acids.
# Imaging. Cells were washed twice with Hanks' balanced salt solution buffer and maintained in the dark at room temperature with the addition of 50 ng/ml rat PDGF (Sigma), 100 ng/ml bovine insulin (Calbiochem), 50 nM IGF-1 (Sigma), or 20 μM LY294002 (Sigma) as described. Cells were imaged on a Zeiss Axiovert 200M microscope with a cooled CCD camera MicroMAX BFT512 (Roper Scientific, Trenton, N.J.) controlled by METAFLUOR 6.2 software (Universal Imaging, Downingtown, Pa.). Dual emission ratio imaging used a 420DF20 excitation filter, a 450DRLP dichroic mirror, and two emission filters (475DF40 for CFP and 535DF25 for YFP) alternated by a filter-changer Lambda 10-2 (Sutter Instruments, Novato, Calif.). Exposure time was 50-500 ms, and images were taken every 15-30 s. Fluorescence images were background-corrected by subtracting autofluorescence intensity of untransfected cells (or background with no cells) from the emission intensities of cells expressing fluorescent reporters. The ratios of yellow-to-cyan emissions were then calculated at different time points.
# We next checked the ability of this chimera to detect changes in 3′ PIs in response to agonist stimulation. NIH3T3 cells expressing this construct were serum-starved then stimulated with 50 ng/ml platelet-derived growth factor (PDGF). Stimulation of endogenous PDGF receptor (PDGFR) generated a FRET increase, resulting in an increase in the ratio of yellow-to-cyan emissions (FIGS. 1D, 1E), which was detectable within several seconds and reached a plateau of 25.4±3.7% [average±std] […] The FRET change occurred in the plasma membrane and was accompanied by the translocation of the reporter (FIG. 1D), reiterating that 3′ PIs are mainly produced at the plasma membrane (22). To verify that the FRET response is caused by binding of PIP3 and PI(3,4)P2, we generated a variant of the reporter in which two critical residues in the PH domain, Arg23 and Arg25, which mainly contribute to D-3 phosphate recognition (20), are mutated.
# [1] = NIH3T3 cells, PDGF first, followed by IGF-1
Substance,t1/2 of InPAkt response produced by the growth factor [min],time to reach plateau of InPAkt response produced by the growth factor [min],InPAkt emission ratio increase produced by the growth factor,"InPAkt emission ratio response, reversed order of ligand addition [1]","t1/2 of InPAkt response, reversed order of ligand addition [1] [min]","time of InPAkt response, reversed order of ligand addition [1] [min]","InPAkt emission ratio increase, sequential stimulation (NIH3T3 cells)","t1/2 of InPAkt response, sequential stimulation (NIH3T3 cells) [min]","time of InPAkt emission ratio increase, sequential stimulation (NIH3T3 cells) [min]"
PDGF,3.45 ± 0.65,5 to 9,25.4±3.7%,24.2 ± 1.5%,3.9 ± 0.2,7 to 9,14.6±1.4%,3.2 ± 0.2,6 to 7
insulin: bovine insulin (Calbiochem),,,did not generate any discernable response,,,,did not generate any appreciable change,,
IGF-1: insulin-like growth factor 1 (Sigma),5.4 ± 0.4,10 to 12,6.5±0.8%,not enhanced,,,6.8±0.9%,5.2 ± 0.1,10 to 12

# Reference: patent US7982021B2, “Nucleic acid molecules encoding emission ratiometric indicators of phosphoinositides” (The Johns Hopkins University, priority 2006, dated 2011)
